What was measured:
heart failure patients [1] = conditions: concomitant drug in patients on metoprolol CR/XL; linear regression on final EF
Excerpt: Patients were recruited for this prospective study from the University of Florida and University of North Carolina Heart Failure Clinics. All clinicians involved in clinical decision making were blinded to the genotypic data and all investigators determining the genotypes were blinded to the patient's clinical course. The study was approved by the Institutional Review Board at each institution, and each patient gave written informed consent for participation in the study. The procedures followed were in accordance with institutional guidelines. The study population included patients aged ≧18 years with symptoms of heart failure in NYHA functional class II-III, and with an EF≦40%. […] Patients were not eligible for enrollment if they were receiving β-blocker therapy.
After obtaining informed consent, a 5-mL blood sample for isolation of genomic DNA was collected. […] Left ventricular dimensions at the mid-cavity or chordal level were measured from digitized end diastolic and end systolic parasternal long axis images of the left ventricle.
Patients were divided by genotype and compared for continuous parameters (e.g., LVEF, LVEDD) at baseline as well as changes in these parameters. Comparisons were made by unpaired t-test, ANOVA, Kruskal Wallis test, or Wilcoxon rank sum as appropriate. […]

heart failure patients [2] = assay: Heart failure study: ejection fraction and heart rate response by ADRA2C Ins/Del and ADRB1 Arg389Gly genotype; assay type: in vivo, human; conditions: concomitant drug in patients on metoprolol CR/XL
Protocol: Inclusion criteria were age >18 years, NYHA functional class II-III, EF <40% and angiotensin-converting enzyme (ACE) inhibitor or angiotensin receptor blocker treatment on a stable dose for a minimum of four weeks. Patients receiving β-blocker therapy were not eligible.
At baseline, ejection fraction (EF), LV end-diastolic diameter (LVEDD) and LV endsystolic diameter (LVESD) were determined by a two-dimensional (2D) quantitative echocardiogram. Echocardiograms were analyzed by a single experienced echo-cardiologist. This individual had no knowledge of the clinical course or the genotyping results. […] The starting dose for patients in NYHA class II was 25 mg/day. […] Based on α of 0.05 and 80% power, at least 20 patients per genotype group (Ins/Ins or Del Carrier) were required to detect a difference of 6 EF units. […] Therefore, univariate linear regression models were used to predict end of study EF, LVEDD, or LVESD with the Ins/Del variable. […] The multivariate linear regressions included also variables that were significant in the univariate models. Three different step-type selection methods (backward elimination, forward elimination, and minimum R^2 improvement) were used to determine the best-fitting regression model from the maximum model. Model entry was set at P<0.1 and variables with P<0.05 stayed for the next step. […]

[3] = tested on: patients with heart failure; conditions: Metra et al. 2000; cited from earlier work
[4] = S-metoprolol plasma concentrations in heart failure patients on metoprolol CR/XL; assay type: in vivo, human; conditions: final metoprolol CR/XL dose, about 2 to 4 hours after dosing
Protocol: After obtaining informed consent, a 5-mL blood sample for isolation of genomic DNA was collected. Baseline evaluations included a two-dimensional (2D) quantitative echocardiogram for determination of measures such as ejection fraction (EF}, left ventricular end-diastolic diameter (LVEDD), LV end-systolic diameter (LVESD), and completion of a 6-minute walk test. After completion of baseline studies, patients began metoprolol CR/XL. The starting dose of metoprolol CR/XL was 12.5 mg/day for patients in NYHA class III and 25 mg/day for patients in NYHA class II. The dose was doubled on a biweekly basis to 200 mg/day or maximum tolerated dose. Thus, the time for the up-titration period was 8-10 weeks depending on the starting dose of metoprolol CR/XL. Patients underwent a follow-up echocardiogram three months after the attainment of completion of up-titration or attainment of the maximum metoprolol CR/XL dose. Thus, at the time of the follow-up echocardiogram, patients had been receiving metoprolol CR/XL for approximately 5-5.5 months. In a subset of 42 patients who consented to additional blood draws, a pharmacokinetic blood sample was obtained approximately 2 to 4 hours following dosing after two weeks on each metoprolol CR/XL dose for determination of S-metoprolol (active isomer) concentrations.

[5] = tested on: hypertensive men and women; assay: Hypertension study: 24-hour ambulatory blood pressure response to metoprolol by ADRA2C Ins/Del genotype
Protocol: In the hypertension study, 40 hypertensive men and women aged 35 to 65 years were studied. Hypertension was defined as untreated DBP between 95 mm Hg and 115 mm Hg (2 clinic visits, ≧5 minutes sitting). A certain range for systolic blood pressure (SBP) was not required for study entry. […] Medications for other indications were only allowed if it could not conceivably affect BP.
Patients took 50 mg metoprolol every 12 hours and BP was measured every week at the same time of the day to minimize the impact of diurnal BP variation. To achieve the goal DBP <90 mm Hg, the dose could be increased weekly to 100 mg and the maximum of 200 mg every 12 hours. Doses were not increased if the patient had intolerable side effects.
After the treatment phase, 24-hour ABP monitoring was repeated and blood samples for a pharmacokinetic analysis were taken.
Thus, univariate linear regression was used to model the DBP responses (24-hour, daytime) with the Ins/Del variable. […] This model would also include other, in the univariate model significant variables (P<0.1 for entry).

SMILES: NS(=O)(=O)c1cc(C(=O)O)c(NCc2ccco2)cc1Cl [Furosemide, furosemide]
- Parameter Estimate for use of the drug, multivariate analysis of change in Ejection Fraction (heart failure patients [1]): 8.22 ejection fraction units

SMILES: CC(=O)S[C@@H]1CC2=CC(=O)CC[C@]2(C)[C@H]2CC[C@@]3(C)[C@@H](CC[C@@]34CCC(=O)O4)[C@H]12 [Spironolactone, spironolactone]
- Parameter estimate for use of the drug, multiple regression of treatment ejection fraction (heart failure patients [2]): 4.37
- Parameter Estimate for use of the drug, multivariate analysis of change in Ejection Fraction (heart failure patients [1]): 6.19 ejection fraction units

SMILES: COc1ccccc1OCCNCC(O)COc1cccc2[nH]c3ccccc3c12 (stereo not shown) [carvedilol]
- 95% confidence intervals for the change in LVEF [3]: −11.1 to +32.9

SMILES: COCCc1ccc(OCC(O)CNC(C)C)cc1.COCCc1ccc(OCC(O)CNC(C)C)cc1.O=C(O)CCC(=O)O (stereo not shown) [metoprolol CR/XL]
- S-metoprolol plasma concentrations, median (interquartile range) ([4]; Arg389 homozygotes): 31 ng/mL
- S-metoprolol plasma concentrations, median (interquartile range) ([4]; Gly 389 carriers): 19 ng/mL

SMILES: COCCc1ccc(OCC(O)CNC(C)C)cc1 (stereo not shown) [metoprolol]
- 95% confidence intervals for the change in LVEF [3]: −8.2 to +22.6
- 24-hour SBP change ([5]; Del carrier): −8.3±21.6
- daytime SBP change ([5]; Del carrier): −9.4±21.7
- nighttime SBP change ([5]; Del carrier): −4.7±22.2
- Nighttime DBP change ([5]; Del carriers): 3.7±9.7 mm Hg
- 24-hour SBP change ([5]; Ins/Ins): −8.8±16.4 mm Hg
- Nighttime DBP change ([5]; Ins/Ins): −8.0±8.8 mm Hg
- daytime SBP change ([5]; Ins/Ins): −9.5±16.6 mm Hg
- nighttime SBP change ([5]; Ins/Ins): −7.0±18.1 mm Hg
- adverse effects ([5]; all 40 hypertension patients): minor
